pIC50, pKi: −log10 of the molar value. “Also recorded” adds a separate entry of the source.
Experiments:
[1] = target: recombinant mFTase (affinity purified rat FPTase) (Rattus norvegicus, UniProt Q02293+Q04631); experiment: FTase scintillation proximity assay; type: biochemical; settings: for pIC50: recombinant mFTase, tritiated FPP 0.12 μM, peptide 0.1 μM; for FTase/GGTase: selectivity mFTase against mGGTase I; for pKi: varying concentrations of tritiated FPP, read-out: K1 FTase
Description: (§1) The method is described in detail in Yokama, et al., J. Biol. Chem., Vol. 272, No. 7, pages 3944-3952 (February 1997). The FTase, tritiated FPP, and the peptide were incubated at 37° C. for 30 minutes in a buffer. After incubation, a stop reagent and streptavidin beads (Amersham) were added. The radioactive product was counted on a Wallac Microbeta 1450 scintillation counter. The kinetic fits were derived from a nonlinear least squares computer fit of the data. The Ki values were determined using the same assay system with varying concentrations of tritiated FPP.

H-Ras-F cells = experiment: Cell morphology of lovastatin-treated H-Ras-F cells; type: cell-based; settings: 25 μM lovastatin 24 h, then analog 24 h
Description: It has been well established that levels of lovastatin that completely block the mevalonate pathway result in cell cycle blockade, significant cytotoxicity, and a sharp change in cell appearance to a rounded morphology. The effects of lovastatin on the cell morphology of H-Ras-F and H-Ras-GG cells treated with FPP, GGPP, 3-vFPP, 3-vGGPP, 3-alFPP, and 3-alGGPP were photographed and the results are shown on FIG. 9 (H-Ras-F) and 8 (H-Ras-GG), respectively. The H-Ras-F and H-Ras-GG cells were grown in six-well plates to 70-80% confluence. After treating the cells with lovastatin (25 μM) for 24 hour, the indicated FPP or GGPP analogs (re-suspended in media) were added directly to the cell media. Photographs were taken after an additional 24 hour incubation period.

[2] = tested on: NIH 3T3 fibroblasts transfected with H-Ras(61 L) [H-Ras-F]; experiment: Soft agar anchorage-independent growth, H-Ras-F cells; type: cell-based; settings: for pIC50: soft agar, 2 weeks, read-out: Mean IC50 (±S.E.) H-Ras-F
Description: (§2) Presumably, the non-polar alcohols pass through the cell membrane and are then diphosphorylated by an as yet uncharacterized kinase to FPP or GGPP.
(§3) The 3-substituted analogs were evaluated as inhibitors of the growth of ras-transformed cells by comparing their relative degree of activity against an isogenic panel of transformed cell lines, comprised of NIH 3T3 fibroblasts transfected with either H-Ras(61 L) [H-Ras-F], H-Ras(61 L)CVLL [H-Ras-GG], or a transforming form of c-raf [Raf]. The H-Ras-F, H-Ras-GG, and raf transformed NIH3T3 cell lines have been previously described in Cox, et al., Molecular and Cellular Biology, Vol. 12, No. 6, pages 2606-2615 (1992). The cells were grown prior to plating in Dulbecco's modified Eagle medium supplemented with 10% calf serum and 1% antibiotic/antimycotic at 37° C. and 10% CO2. Experiments were carried out in 6-well dishes in a two layer agar system (0.6% bottom layer and 0.3% top layer). Cells were incorporated into the top layer along with varying concentrations of the compound prepared in ethanol. Compound addition occurred only at the time the cells were seeded. Subsequent incubation was at 37° C. with 10% CO2 for 2 weeks. Colonies were stained with 0.5 ml/well of 1 mg/ml p-iodonitrotetrazolium violet (Sigma) for 24 hours prior to quantitation by image analysis.

[3] = tested on: NIH 3T3 fibroblasts transfected with H-Ras(61 L)CVLL [H-Ras-GG]; experiment: Soft agar anchorage-independent growth, H-Ras-GG cells; type: cell-based; settings: 2 weeks, read-out: Mean IC50 (±S.E.) H-Ras-GG
Description: as §2, §3

[4] = tested on: NIH 3T3 fibroblasts transfected with a transforming form of c-raf [Raf]; experiment: Soft agar anchorage-independent growth, Raf cells; type: cell-based; settings: 2 weeks, mean of two tests
Description: as §2, §3

[5] = tested on: H-Ras-GG in H-Ras-GG cells; experiment: Subcellular fractionation / Western blot of Ras in lovastatin-treated H-Ras-GG cells; type: cell-based; settings: summary statement
Description: (§4) H-Ras-F (A) or H-Ras-GG (B) cells were treated with 25 μM lovastatin for 24 h after which the indicated FPP or GGPP analogs (resuspended in media) were added directly to the cell media. Following an additional 24 h incubation period, the cells were harvested, lysed and the membranes (M) separated from the cytosol (C). After solubilization of the membrane fraction, Ras protein was immunoprecipitated from both the membrane and cytosolic fractions by the addition of the Y13-259 antibody (OP04 from Oncogene Science). The presence of Ras protein in each fraction was analyzed by Western transfer techniques. Incubation with the primary antibody (pan-ras Ab-2 from Oncogene Science) and an anti-mouse HRP conjugate secondary antibody (Amersham) was employed for detection of the ras protein. Blots were developed using Enhanced Chemiluminescence techniques (Amersham). The technique is described in detail by Scholten, et al., Bioorg. Med. Chem., Vol. 4, pages 1537-1543 (1992).
The selectivity and mechanism of the observed cell growth inhibition was further probed by studying the effects of the 3-vinyl and 3-allyl GGPP analogs on the subcellular distribution of the geranylgeranylated protein variant in H-Ras-GG cells in a manner similar to that described for 3-vFPP and 3-alFPP. The Western blot is shown on FIG. 8. With H-Ras-GG cells, as with H-Ras-F cells, blockage of the mevalonate pathway results in a shift in the subcellular location of the Ras protein from the membrane to the cytosol.

H-Ras in H-Ras-F cells = experiment: Subcellular fractionation / Western blot of Ras in lovastatin-treated H-Ras-F cells; type: cell-based; settings: for Subcellular location of H-Ras (membrane vs cytosol): H-Ras-F cells, 25 μM lovastatin 24 h, then analog 24 h
Description: as §4, with “Following” for “H-Ras-F (A) or H-Ras-GG (B) cells were treated with 25 μM lovastatin for 24 h after which the indicated FPP or GGPP analogs (resuspended in media) were added directly to the cell media. Following”
The results are shown in FIGS. 6 and 7 which are Western blots of the H-Ras-F and H-Ras-GG experiments, respectively. H-Ras-F cells were treated with lovastatin in order to block the mevalonate pathway, prevent the formation of FPP and GGPP, and thus, inhibit protein prenylation.

recombinant mGGTase I = recombinant mGGTase I (Homo sapiens, UniProt P49354+P53609); experiment: GGTase I scintillation proximity assay; type: biochemical; settings: tritiated GGPP
Description: as §1
GGTase I values were determined in a similar manner using recombinant mGGTase I, tritiated GGPP, and the peptide Biotin-Aha-Thr-Lys-Cys-Val-Ile-Leu-OH.

[6] = target: T1, recombinant yeast FTase (yFTase) (Saccharomyces cerevisiae, UniProt P22007+P29703); settings: cited from earlier work
T1 sequence (P22007 1-431): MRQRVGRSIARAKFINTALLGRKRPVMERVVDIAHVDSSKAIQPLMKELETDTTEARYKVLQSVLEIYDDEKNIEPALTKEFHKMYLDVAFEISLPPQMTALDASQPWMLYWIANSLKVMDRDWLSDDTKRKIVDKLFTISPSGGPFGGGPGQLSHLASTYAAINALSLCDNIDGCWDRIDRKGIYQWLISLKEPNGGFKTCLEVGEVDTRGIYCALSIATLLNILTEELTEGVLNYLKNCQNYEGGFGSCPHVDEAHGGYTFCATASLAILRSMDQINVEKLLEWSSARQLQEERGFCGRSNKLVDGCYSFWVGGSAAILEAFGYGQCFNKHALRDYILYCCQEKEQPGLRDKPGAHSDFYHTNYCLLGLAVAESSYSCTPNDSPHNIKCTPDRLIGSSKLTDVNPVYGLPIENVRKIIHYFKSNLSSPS
T1 sequence (P29703 1-316): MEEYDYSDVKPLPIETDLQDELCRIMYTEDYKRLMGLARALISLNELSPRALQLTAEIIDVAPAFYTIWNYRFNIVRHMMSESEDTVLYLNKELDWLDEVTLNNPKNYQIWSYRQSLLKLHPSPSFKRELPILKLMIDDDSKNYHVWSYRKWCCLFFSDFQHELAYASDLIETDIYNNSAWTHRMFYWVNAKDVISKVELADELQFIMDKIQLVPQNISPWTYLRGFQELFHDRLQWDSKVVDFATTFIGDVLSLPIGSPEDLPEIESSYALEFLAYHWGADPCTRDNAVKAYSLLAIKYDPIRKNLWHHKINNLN

[7] = tested on: HPAC (human pancreatic adenocarcinoma cells); experiment: Proliferation of HPAC cells, Trypan Blue exclusion; type: cell-based; settings: 48 hours
Description: The malignant human cell line HPAC (human pancreatic adenocarcinoma cells) was used in this study. The cells were seeded at a concentration of 2×10^5/ml in 24 well culture plate (Costar, Cambridge, Mass). […] Varying amounts of the stock solutions were then used to treat the HPAC cells. The final concentration of the farnesol analogs in the culture plate wells ranged from 0 nM (ethanol-treated control) to 500 nM. The plate was then incubated at 37° C. under a 5% CO2-humidified atmosphere for 48 hours. The total viable cells from each well were determined by Trypan Blue (0.4%) exclusion (Gibco, N.Y.) followed by cell counting.

With `CC(C)=CCC/C(C)=C/CC/C(=C/COP(=O)(O)OP(=O)(O)O)c1ccccc1` [Compound 3-phFPP] the pIC50 [1] was 6.52 and the FTase/GGTase [1] was greater than 340.
In the case of `CC(C)=CCC/C(C)=C/CC/C(C)=C/CC/C(C)=C/CO` [geranylgeraniol, reference compound], the “Reversal of rounded morphology of lovastatin-treated H-Ras-F cells” value (H-Ras-F cells) was “can be reversed”.
`CC(C)=CCCC(C)=CCCC(=CCO)c1ccccc1` [3-phenyl Farnesol] showed a pIC50 [2] of less than 4.60 and a pIC50 [3] of less than 4.60.
Compound `C=CC/C(=C\CO)CC/C=C(\C)CC/C=C(\C)CCC=C(C)C` [3-allyl Geranylgeraniol, 3-Allyl-7,11,15-trimethylhexadeca-2(Z),6(E),10(E),14-tetraen-1-ol] has a pIC50 [2] of less than 4.60, a pIC50 [3] of 5.34 and a pIC50 [4] of less than 4.60. For the same compound, the “Protein geranylgeranylation in cells” value [5] was “inhibits protein geranylgeranylation”.
For `C=CC/C(=C\COP(=O)(O)OP(=O)(O)O)CC/C=C(\C)CCC=C(C)C` [Compound 3-alFPP, 3-Allyl-7,11-dimethyldodeca-2(Z),6(E),10-triene 1-diphosphate], the “Mode of inhibition of mFTase versus FPP” value [1] was “competitive inhibitors”, the pIC50 [1] was 6.72 and the FTase/GGTase [1] was greater than 530. The pKi [1] was 7.51, the “Subcellular location of H-Ras (membrane vs cytosol)” value (H-Ras in H-Ras-F cells) was “virtually all of the H-Ras being found in the cytosol” and the “Reversal of rounded morphology of lovastatin-treated H-Ras-F cells” value (H-Ras-F cells) was “not able to reverse the morphology”.
For `CC(C)=CCC/C(C)=C/CC/C(=C/COP(=O)(O)OP(=O)(O)O)C(C)(C)C` [Compound 3-tbFPP, 3-tert-butyl-2(Z),6(E),10-triene diphosphate], the “Mode of inhibition of mFTase versus FPP” value [1] was “competitive inhibitors”, the pIC50 [1] was 7.51 and the FTase/GGTase [1] was “˜1600”. For the same compound, the pKi [1] was 8.10, the pIC50 (recombinant mGGTase I) was roughly 4.30 and the “Inhibition of yFTase” value [6] was “potent competitive inhibitor”. For the same compound, the “Substrate activity for yFTase” value [6] was “exceptionally poor substrate”.
With `CC/C(=C\COP(=O)(O)OP(=O)(O)O)CC/C=C(\C)CCC=C(C)C` [Compound 3-etFPP] the pIC50 [1] was 6.67 and the FTase/GGTase [1] was greater than 460.
For `CC(C)=CCC/C(C)=C/CC/C(C)=C/CC/C(C)=C/COP(=O)(O)OP(=O)(O)O` [GGPP, geranylgeranyl diphosphate, reference compound], the “Reversal of rounded morphology of lovastatin-treated H-Ras-F cells” value (H-Ras-F cells) was “can be reversed”.
In the case of `CC(C)=CCC/C(C)=C/CC/C(=C/CO)C(C)(C)C` [3-tert-butylfarnesol, 3-tert-Butyl-7,11-dimethyldodeca-2(Z),6(E),10-trien-1-ol], the “Cellular activity (transformed cell growth, soft agar), in words” value ([2]; transformed NIH3T3 cell lines) was “inactive in cells”.
In the case of `C=C/C(=C\COP(=O)(O)OP(=O)(O)O)CC/C=C(\C)CCC=C(C)C` [Compound 3-vFPP, 3-Vinyl-7,11-dimethyldodeca-2(Z),6(E),10-triene 1-Diphosphate], the “Mode of inhibition of mFTase versus FPP” value [1] was “competitive inhibitors”, the pIC50 [1] was 6.76 and the FTase/GGTase [1] was “˜600”. For the same compound, the pKi [1] was 7.02, the pIC50 (recombinant mGGTase I) was roughly 4.00 and the “Blocking of prenylation of Ras proteins in H-Ras-F cells” value (H-Ras in H-Ras-F cells) was “neither 3-vinylfarnesol nor 3-vFPP blocked the prenylation of Ras proteins”. For the same compound, the “Subcellular location of H-Ras (membrane vs cytosol)” value (H-Ras in H-Ras-F cells) was “virtually complete localization of the H-Ras protein in the membrane fraction (M)”, the “Reversal of rounded morphology of lovastatin-treated H-Ras-F cells” value (H-Ras-F cells) was “modest ability to do so” and the “Substrate activity for yFTase” value [6] was “poor alternative substrate”.
With `CC[C@H](C)C(=O)O[C@H]1C[C@@H](C)C=C2C=C[C@H](C)[C@H](CC[C@@H]3C[C@@H](O)CC(=O)O3)[C@H]21` [lovastatin, reference compound] the “Subcellular location of H-Ras (membrane vs cytosol)” value (H-Ras in H-Ras-F cells) was “shift of the majority of H-Ras from the membrane fraction (M) to the cytosol (C)”.
For `CCC(=CCO)CCC=C(C)CCC=C(C)C` [3-ethyl Farnesol], the pIC50 [2] was less than 4.60 and the pIC50 [3] was less than 4.60.
In the case of “3-Allyl 7,11-dimethyldodeca-2(Z),6(E),10-trien-1-ol [3-ally Farnesol]”, the “Effect on HPAC cells at 100 nM” value ([7]; 100 nM) was “cytostasis”, the “Viable HPAC cell count at 100 nM” value ([7]; 100 nM, seeded 2×10^5/ml, control well 2.2×10^6 cells) was ~2×10^5 /well and the “Effect on HPAC cells at 500 nM” value ([7]; 500 nM, listed as 3-allylfarnesol) was “potently cytotoxic; also recorded: complete cytotoxicity”.
